# According to US8846873B2, “Antibodies directed to GPNMB and uses thereof” (Celldex Therapeutics, Inc., priority 2004, dated 2014):
# Entries after “also recorded” stand apart in the source; their conditions may differ.
# What was measured:
# SNB-78 = experiment: Clonogenic assay, CR011-vcMMAE in vitro growth inhibition; format: cell-based, human
# Experimental: (§1) Cells were plated in 96-well plates and allowed to recover overnight. […] The cells were then transferred into 6-well plates and allowed to form colonies. Colonies were stained with Giemsa stain (Sigma) and counted. The surviving cell fractions were calculated based upon the ratio of the treated sample and the untreated control. The results were expressed as a percentage of control using GraphPad Prism Version 4 software.
# XF-498 = experiment: as above; format: cell-based, human
# Experimental: as §1
# SF-539 = experiment: as above; format: cell-based, human
# Experimental: as §1
# U-118-MG = experiment: as above; format: cell-based, human
# Experimental: as §1
# [1] = system: SK-MEL-2 melanoma xenografts; experiment: Human SK-MEL-2 melanoma xenograft in athymic mice; format: in vivo
# Experimental: Test Animals: Five- to 6-week old athymic mice (CD-1 nu/nu females), used for human tumor xenografts, were obtained from Harlan Laboratories (Indianapolis, Ind.). Animals were housed in specific pathogen-free conditions, according to the guidelines of the Association for Assessment and Accreditation of Laboratory Animal Care International (AAALAC International). Test animals were provided pelleted food and water ad libitum and kept in a room with conditioned ventilation (HVAC), temperature (22°±2° C.), relative humidity (55%±15%), and photoperiod (12 hr). All studies were carried out with approved institutional animal care and use protocols.
# Human Melanoma Xenograft Models. The tumor inhibitory activity of the CR011-MMAE immunoconjugate was measured in an anti-tumor xenograft model using athymic mice, according to published methods (see Geran et al., Cancer Chemother. Rep. 3:1-104 (1972)). […] When tumors became established (10-20 days), the animals were pair-matched into groups (n=6 mice/group), and treatment was administered by intravenous injection (tail vein).
# The SK-MEL-2 human melanoma (ATCC #HTB-68) was derived from a metastatic site (skin of thigh) of a person with malignant melanoma, and the SK-MEL-5 human melanoma (ATCC #HTB-70) was derived from a metastatic site (axillary lymph node) of a person with malignant melanoma (see Fogh et al., J. Natl. Cancer Inst. 59: 221-226 (1977)). Both cell lines were obtained from the American Type Culture Collection.
# The effects of treatment were monitored by repetitive tumor measurements across 2 diameters with Vernier calipers; tumor size (in mg) was calculated using a standard formula, (W^2×L)/2, assuming a specific gravity of 1.0. Tumor size and body weights were assessed twice weekly. Mice were examined daily, however, and moribund animals were humanely euthanized if clinical indications of excessive pain or distress were noted (i.e., prostration, hunched posture, paralysis/paresis, distended abdomen, ulcerations, abscesses, seizures, and/or hemorrhages). Animals with tumors exceeding 2,000 mg were removed from the study and euthanized humanely.
# No apparent or statistically significant anti-tumor effects were observed. […] In preliminary studies, tumor regression was complete and was not followed by regrowth of the tumor despite lengthy observation periods (up to 200 days).
# [2] = Pharmacokinetics of CR011-vcMMAE after intravenous administration (sandwich ELISA of serum); format: in vivo, athymic mice; settings: for A (pre-exponential constant for alpha phase) / AUC (total area under the curve from 0 to infinity) / Alpha (exponential rate constant for alpha phase) / Alpha-Half Life / B (pre-exponential constant for beta phase) / Beta (exponential rate constant for beta phase) / Beta- Half Life / Cl (total or systemic clearance) / Cmax / Volume (volume of central compartment) / Vss (steady-state volume of distribution): athymic mice, serum
# Text: Abbreviations: A: Pre-exponential constant for alpha phase; Alpha: Exponential rate constant for alpha phase; AUC Total area under the curve from 0 to infinity; B: Pre-exponential constant for beta phase; Beta: Exponential rate constant for beta phase; Cl: Total or systemic clearance; Cmax: Maximum observed concentration; MRT: Mean residence time; Volume: Volume of central compartment; Vss: Steady-state volume of distribution.
# TK-10 cells = experiment: Cell cycle analysis (BrdU / propidium iodide flow cytometry); format: cell-based, human; settings: for % G1 / % G2/M / % S-phase / % Sub-G1: TK-10, 24 hour
# Experimental: (§2) Briefly, cells were pulsed at the indicated times with 30 μM of bromodeoxyuridine (BrdU, Sigma) for 30 min, harvested, fixed and permeabilized in methanol. Nascent DNA synthesis was detected by anti-bromodeoxyuridine-FITC (BD Biosciences, San Jose, Calif.) staining. Total DNA content was detected using propidium iodide (PI, Sigma). For apoptosis analysis, cells were treated as above and labeled with Annexin V-FITC followed by propidium iodide exclusion using the Annexin V-FITC Apoptosis Detection kit I (BD PharMingen, San Diego, Calif.) according to the manufacturer's protocols. Flow cytometry (as described in the previous Example) was used to assay both cell cycle and apoptosis studies.
# (§3) DNA synthesis and cell cycle progression were determined by flow cytometry (Table 52).
# SK-Mel-2 cells = experiment: as above; format: cell-based, human; settings: for % G1 / % G2/M / % S-phase / % Sub-G1: SK-Mel-2, 24 hour
# Experimental: as §2, §3
substance,measurement,setting,value
CR011-vcMMAE: anti-GPNMB antibody 1.15.1 coupled to monomethylauristatin E via protease-sensitive valine-citrulline linker,IC50,SNB-78,~0.45 µg/mL
same,IC50,XF-498,approximately 215 ng/mL
same,IC50,SF-539,~1.05 µg/mL
same,IC50,U-118-MG,~1.25 µg/mL
same,complete regressors,"[1]; 2 mg/kg cumulative dose, all dosing intervals",13%
same,proportions of complete regressions (animals),"[1]; 8 mg/kg cumulative dose, 5 groups of 6 animals",28/30
same,complete regressions,"[1]; 8 mg/kg cumulative dose, all dosing intervals",93%
same,tumor response,"[1]; CR011-ONC-1, CR011-vcMMAE 5 mg/kg/treatment i.v. q4d x4, components at doses identical to those in the immunoconjugate",Tumor growth inhibition and complete regression; also recorded: no discernible tumor was detected in all 6 of the test animals
same,abnormal treatment effects on gross examination,[1]; Study N-386,no abnormal treatment effects
same,time after treatment commenced to significant treatment effects,"[1]; Study N-386, 20, 10, 5 or 2.5 mg/kg i.v. q4d x4, P≦0.014",4 days
same,anti-tumor effect,"[1]; Study N-386, i.v., CR011-vcMMAE 20, 10, 5 or 2.5 mg/kg q4d x4, vinblastine […] q4d x4",tumors rapidly diminished in size for the majority of the test animals
same,effects of treatment on body weight or weight gain,"[1]; Study N-386, twice weekly body weight",no observable or statistically significant effects
same,complete regressions,"[1]; cumulative dose of 32 mg/kg, all dosing intervals",100%
same,schedule dependency of anti-tumor effects,"[1]; dosing intervals 0, 1, 4, 8, 16 days",not schedule-dependent
same,re-growth of tumors that regressed completely,[1]; observation period >200 days,did not re-grow
same,A (pre-exponential constant for alpha phase),[2]; 1 mg/kg intravenous,8.97 µg/mL
same,AUC (total area under the curve from 0 to infinity),[2]; 1 mg/kg intravenous,3712 µg·h/mL
same,Alpha (exponential rate constant for alpha phase),[2]; 1 mg/kg intravenous,0.179 h⁻¹
same,Alpha-Half Life,[2]; 1 mg/kg intravenous,0.162 days
same,B (pre-exponential constant for beta phase),[2]; 1 mg/kg intravenous,9.82 µg/mL
same,Beta (exponential rate constant for beta phase),[2]; 1 mg/kg intravenous,0.00269 h⁻¹
same,Beta- Half Life,[2]; 1 mg/kg intravenous,10.8 days
same,Cl (total or systemic clearance),[2]; 1 mg/kg intravenous,6.46 mL/day/kg
same,Cmax,[2]; 1 mg/kg intravenous,18.8 µg/mL
same,Volume (volume of central compartment),[2]; 1 mg/kg intravenous,0.0532 L/kg
same,Vss (steady-state volume of distribution),[2]; 1 mg/kg intravenous,0.099 L/kg
same,A (pre-exponential constant for alpha phase),[2]; 10 mg/kg intravenous,74.6 µg/mL
same,AUC (total area under the curve from 0 to infinity),[2]; 10 mg/kg intravenous,41210 µg·h/mL
same,Alpha (exponential rate constant for alpha phase),[2]; 10 mg/kg intravenous,0.0812 h⁻¹
same,Alpha-Half Life,[2]; 10 mg/kg intravenous,0.3555 days
same,B (pre-exponential constant for beta phase),[2]; 10 mg/kg intravenous,113 µg/mL
same,Beta (exponential rate constant for beta phase),[2]; 10 mg/kg intravenous,0.00281 h⁻¹
same,Beta- Half Life,[2]; 10 mg/kg intravenous,10.3 days
same,Cl (total or systemic clearance),[2]; 10 mg/kg intravenous,5.83 mL/day/kg
same,Cmax,[2]; 10 mg/kg intravenous,188 µg/mL
same,Volume (volume of central compartment),[2]; 10 mg/kg intravenous,0.0532 L/kg
same,Vss (steady-state volume of distribution),[2]; 10 mg/kg intravenous,0.0845 L/kg
same,T1/2β,[2]; 1 or 10 mg/kg intravenously,10.3 days
same,contribution of the initial phase (α) to the total AUC,[2]; 1 or 10 mg/kg intravenously,< 2%
same,volume of distribution at steady state (Vss),[2]; intravenous,very low
same,cycling of GPNMB-negative cells,TK-10 cells; 1000 ng/mL,did not affect the cycling
same,% G1,TK-10 cells; 100 ng/mL,51.1%
same,% G2/M,TK-10 cells; 100 ng/mL,4.5%
same,% S-phase,TK-10 cells; 100 ng/mL,35.1%
same,% Sub-G1,TK-10 cells; 100 ng/mL,0.7%
same,% G1,TK-10 cells; 1000 ng/mL,52.6%
same,% G2/M,TK-10 cells; 1000 ng/mL,3.9%
same,% S-phase,TK-10 cells; 1000 ng/mL,34.2%
same,% Sub-G1,TK-10 cells; 1000 ng/mL,0.8%
same,decreased percentage of cells in G1 and S-phase compared to untreated cells,"SK-Mel-2 cells; 1000 ng/mL, 24 hrs",10%
same,increased percentage of cells in G2/M compared to untreated cells,"SK-Mel-2 cells; 1000 ng/mL, 24 hrs",18.6%
same,increased percentage of cells in G2/M,"SK-Mel-2 cells; 1000 ng/mL, 48 hr",24%
same,reduced percentage of cells in G1 and S-phase,"SK-Mel-2 cells; 1000 ng/mL, 48 hr",11%
same,% G1,SK-Mel-2 cells; 100 ng/mL,56.0%
same,% G2/M,SK-Mel-2 cells; 100 ng/mL,12.4%
same,% S-phase,SK-Mel-2 cells; 100 ng/mL,26.9%
same,% Sub-G1,SK-Mel-2 cells; 100 ng/mL,0.2%
same,% G1,SK-Mel-2 cells; 1000 ng/mL,43.7%
same,% G2/M,SK-Mel-2 cells; 1000 ng/mL,28.5%
same,% S-phase,SK-Mel-2 cells; 1000 ng/mL,20.0%
same,% Sub-G1,SK-Mel-2 cells; 1000 ng/mL,1.1%
